According to US4396550A, “Dibenz [b,e] oxepin derivatives” (Kyowa Hakko Kogyo Co., Ltd., priority 1980, dated 1983):

What was measured:
[1] = test system: isolated ileum of guinea-pig; assay: Test for anticholinergic effects on the isolated ileum of guinea-pig (acetylcholine contraction, in vitro); parameters: species or system guinea-pig (male Hartly-strain); conditions: Cavia porcellus, 0.05 h; depressing ratio of 80% or more of acetylcholine contraction; compound 3 minutes before; read-out: Anticholinergic activity: MED (minimum effective dose)
Protocol: (§1) Male Hartly-strain guinea-pigs weighing about 250 g are killed and the abdomen is opened. The part (2-3 cm in length) of the ileum 10 cm away from the caecum to the pylorus is cut off as a preparation. The preparation is suspended with serre-fine in a Magnus bath containing 10 ml of Tyrode's solution at 32±1° C. under an air bubble. The contraction of the ileum is recorded on Kymograph through hebel when 0.1 ml of acetylcholine at a concentration of 10^-3 g/ml is added to the Tyrode's solution.
(§2) On the other hand, 3 minutes after administration of the test compounds, the same procedure as mentioned above is carried out to record the contraction.

[2] = test system: male dd-strain rats; assay: Acute toxicity test (minimum lethal dose); type: in vivo; conditions: mortality for 7 days
Protocol: Groups of male dd-strain rats (each group consisting of five rats) weighing 20±1 g were used. The compounds of the present invention were administered orally (po: 0.3 mg/g) or intraperitoneally (ip: 0.1 mg/g). The MLD (minimum lethal dose) was calculated from the mortality for 7 days after the administration to obtain the results given in Table 1.

[3] = test system: blood platelets (platelet-rich plasma); assay: Test for the inhibition of platelet aggregation (collagen-induced, platelet-rich plasma); type: cell-based, male white rabbits; conditions: Oryctolagus cuniculus, Platelet, 0.05 h; depressing ratio of 50% of collagen-induced aggregation; compound 3 minutes before; read-out: Antiplatelet aggregation activity: MED
Protocol: In this test, 9 vols. of blood are sampled from the caroted artery of male white rabbits weighing 2 to 2.5 kg and placed in a silicon-coated flask containing 1 vol. of 3.8% sodium citrate. The thus obtained blood is centrifuged at 1,000 rpm for 15 minutes to obtain platelet-rich plasma. The aggregation of the blood platelets is observed using an aggregometer, when collagen is added to the platelet-rich plasma to the extent of the final concentration that 50% of platelet aggregation is caused in the presence of 100 γ/ml of aspirin. On the other hand, 3 minutes after administration of the test compounds to the platelet-rich plasma, the same procedure as mentioned above is carried out to observe the aggregation of blood platelet. The test compounds showing a depressing ratio of 50%, compared with the inhibition of aggregation by collagen alone, are concluded to have antiplatelet aggregation activity.

[4] = test system: isolated ileum of guinea-pig; assay: Test for antihistaminergic effects on the isolated ileum of guinea-pig (histamine contraction, in vitro); parameters: species or system guinea-pig (male Hartly-strain); conditions: Cavia porcellus, 0.05 h; depressing ratio of 80% or more of histamine contraction; read-out: Antihistaminergic activity: MED
Protocol: as §1, §2
In this test, 0.1 ml of histamine at a concentration of 5×10^-3 g/l is used.

Compound	minimal effective concentration [1] [µg/mL]	Acute toxicity: MLD (minimum lethal dose) ([2]; ip) [mg/kg]	Acute toxicity: MLD (minimum lethal dose) ([2]; po) [mg/kg]	minimal effective concentration [3] [µg/mL]	minimal effective concentration [4] [µg/mL]
CCc1ccc2c(c1)C(NCCCN(CC)CC)c1ccccc1CO2 (centres unmarked) [Compound 2, 2-ethyl-11-{3-(diethylamino)propyl}amino-6,11-dihydrodibenz[b,e]oxepin]	10	100	300	1	1
CCN(CC)CCCNC1c2ccccc2COc2ccc(F)cc21 (centres unmarked) [Compound 3, 2-fluoro-11-{3-(diethylamino)propyl}amino-6,11-dihydrodibenz[b,e]oxepin]	10	> 100	> 300	20	10
CCN(CC)CCCNC1c2ccccc2COc2ccc(OC)cc21 (centres unmarked) [Compound 7, 2-methoxy-11-{3-(diethylamino)propyl}amino-6,11-dihydrodibenz[b,e]oxepin]	0.3	100	> 300	–	0.3
CCN(CC)CCNC1c2ccccc2COc2c(C)cccc21 (centres unmarked) [Compound 12, 4-methyl-11-{2-(diethylamino)ethyl}amino-6,11-dihydrodibenz[b,e]oxepin]	–	100	> 300	10	–
Cc1ccc2c(c1)C(NN1CCN(C)CC1)c1ccccc1CO2 (centres unmarked) [Compound 29, 2-methyl-11-(4-methyl-1-piperazinyl)amino-6,11-dihydrodibenz[b,e]oxepin]	–	> 100	> 300	50	10
Fc1ccc2c(c1)C(NCC1COc3ccccc3O1)c1ccccc1CO2 (centres unmarked) [Compound 30, 2-fluoro-11-{(1,4-benzodioxane-2-)methyl}amino-6,11-dihydrodibenz[b,e]oxepin]	10	> 100	> 300	–	10
Fc1ccc(C(NC2c3ccccc3COc3ccc(F)cc32)c2ccc(F)cc2)cc1 (centres unmarked) [Compound 31, 2-fluoro-11-{bis-(4-fluorophenyl)methyl}amino-6,11-dihydrodibenz[b,e]oxepin]	–	> 100	> 300	100	–
CC(CCc1ccccc1)NC1c2ccccc2COc2ccc(F)cc21 (centres unmarked) [Compound 32, 2-fluoro-11-{(1-methyl-3-phenyl)propyl}amino-6,11-dihydrodibenz[b,e]oxepin]	3	> 100	> 300	–	–
Fc1ccc2c(c1)C(NCCOC(c1ccccc1)c1ccccc1)c1ccccc1CO2 (centres unmarked) [Compound 33, 2-fluoro-11-{2-(diphenylmethyloxy)ethyl}amino-6,11-dihydrodibenz[b,e]oxepin]	–	> 100	> 300	100	–
Fc1ccc2c(c1)C(NCCN(Cc1ccccc1)Cc1ccccc1)c1ccccc1CO2 (centres unmarked) [Compound 34, 2-fluoro-11-{2-(dibenzylamino)ethyl}amino-6,11-dihydrodibenz[b,e]oxepin]	–	> 100	300	–	10
Cc1cccc2c1OCc1ccccc1C2N1CCN(CCO)CC1 (centres unmarked) [Compound 41, 4-methyl-11-{4-(2-hydroxyethyl)-1-piperazinyl}-6,11-dihydrodibenz[b,e]oxepin]	–	> 100	> 300	100	–
OCCN1CCN(C2c3ccccc3COc3c(-c4ccccc4)cccc32)CC1 (centres unmarked) [Compound 42, 4-phenyl-11-{4-(2-hydroxyethyl)-1-piperazinyl}-6,11-dihydrodibenz[b,e]oxepin]	–	> 100	> 300	100	–
Fc1ccc(C(c2ccc(F)cc2)N2CCN(C3c4ccccc4COc4ccc(F)cc43)CC2)cc1 (centres unmarked) [Compound 43, 2-fluoro-11-[4-{bis-(4-fluorophenyl)}methyl-1-piperazinyl]-6,11-dihydrodibenz[b,e]oxepin]	–	> 100	> 300	100	–
Cc1ccc2c(c1)C(N1CCN(CCN)CC1)c1ccccc1CO2 (centres unmarked) [Compound 44, 2-methyl-11-{4-(2-aminoethyl)-1-piperazinyl}-6,11-dihydrodibenz[b,e]oxepin]	10	100	> 300	–	10
NCCN1CCN(C2c3ccccc3COc3ccc(F)cc32)CC1 (centres unmarked) [Compound 46, 2-fluoro-11-{4-(2-aminoethyl)-1-piperazinyl}-6,11-dihydrodibenz[b,e]oxepin]	–	> 100	> 300	50	1
c1ccc2c(c1)COc1ccc(C3CCCCC3)cc1C2NC1CN2CCC1CC2 (centres unmarked) [Compound 54, 2-cyclohexyl-11-(3-quinuclidinyl)amino-6,11-dihydrodibenz[b,e]oxepin]	10	100	> 300	–	1
COc1ccc(CCNC2c3ccccc3COc3ccc(F)cc32)cc1OC (centres unmarked) [Compound 60, 2-fluoro-11-{2-(3,4-dimethoxyphenyl)ethyl}amino-6,11-dihydrodibenz[b,e]oxepin]	–	> 100	> 300	–	10
CCc1ccc2c(c1)C(Nc1cccc3ncccc13)c1ccccc1CO2 (centres unmarked) [Compound 61, 2-ethyl-11-(5-quinolyl)amino-6,11-dihydrodibenz[b,e]oxepin]	–	> 100	> 300	–	10
Cc1ccc2c(c1)C(Nc1ccc3[nH]ccc3c1)c1ccccc1CO2 (centres unmarked) [Compound 62, 2-methyl-11-(5-indolyl)amino-6,11-dihydrodibenz[b,e]oxepin]	–	> 100	> 300	50	–
CCN(CCN(C)C)C1c2ccccc2COc2ccc(C)cc21 (centres unmarked) [Compound 64, 2-methyl-11-[N-{2-(dimethylamino)ethyl}-N-ethyl]amino-6,11-dihydrodibenz[b,e]oxepin]	10	> 100	> 300	–	10
Cc1ccc2c(c1)C(N1CCC3(CC1)OCCO3)c1ccccc1CO2 (centres unmarked) [Compound 65, 2-methyl-11-(1',3'-dioxoran-2-'spiro-4-piperidino)-6,11-dihydrodibenz[b,e]oxepin]	–	> 100	> 300	–	10
